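Each compound was tested at five concentrations against cells in 96-well plates for 48 hours. GI50: concentration for 50% inhibition of growth. TGI: total growth inhibition.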
Tests used:
Assay in all cases: inhibition of tumour cell growth, NCI panel, 48 h
SW-620 colon = test system: SW-620 colon
MDA-MB-231 breast = test system: MDA-MB-231 breast
NCI-H460 lung = test system: NCI-H460 lung
NCI/ADR-RES ovarian = test system: NCI/ADR-RES ovarian
UACC-62 melanoma = test system: UACC-62 melanoma
NCI-H23 lung = test system: NCI-H23 lung
ACHN renal = test system: ACHN renal
UO-31 renal = test system: UO-31 renal
NCI-H226 lung = test system: NCI-H226 lung
SF-268 CNS = test system: SF-268 CNS
SR leukemia = test system: SR leukemia
HCT-116 colon = test system: HCT-116 colon
HT29 colon = test system: HT29 colon
HOP-92 NSCLC = test system: HOP-92 NSCLC
COLO 205 colon = test system: COLO 205 colon
DU-145 prostate = test system: DU-145 prostate
SK-OV-3 ovarian = test system: SK-OV-3 ovarian
OVCAR-5 ovarian = test system: OVCAR-5 ovarian
HL-60(TB) leukemia = test system: HL-60(TB) leukemia
EKVX NSCLC = test system: EKVX NSCLC
HS 578T breast = test system: HS 578T breast
OVCAR-8 ovarian = test system: OVCAR-8 ovarian
CAKI-1 renal = test system: CAKI-1 renal
SNB-19 CNS = test system: SNB-19 CNS
CCRF-CEM leukemia = test system: CCRF-CEM leukemia
U251 CNS = test system: U251 CNS
OVCAR-4 ovarian = test system: OVCAR-4 ovarian
HOP-62 NSCLC = test system: HOP-62 NSCLC
SF-295 CNS = test system: SF-295 CNS
SK-MEL-2 melanoma = test system: SK-MEL-2 melanoma
MDA-MB-435 = test system: MDA-MB-435
SK-MEL-28 melanoma = test system: SK-MEL-28 melanoma
SF-539 CNS = test system: SF-539 CNS
OVCAR-3 ovarian = test system: OVCAR-3 ovarian
MCF7 breast = test system: MCF7 breast
UACC-257 melanoma = test system: UACC-257 melanoma
LOX IMVI melanoma = test system: LOX IMVI melanoma
K-562 leukemia = test system: K-562 leukemia
A549 NSCLC = test system: A549 NSCLC
MALME-3M melanoma = test system: MALME-3M melanoma
TK-10 renal = test system: TK-10 renal
IGROV1 ovarian = test system: IGROV1 ovarian
BT-549 breast = test system: BT-549 breast
SNB-75 CNS = test system: SNB-75 CNS
HCC-2998 colon = test system: HCC-2998 colon
A498 renal = test system: A498 renal
786-0 renal = test system: 786-0 renal
MOLT-4 leukemia = test system: MOLT-4 leukemia
HCT-15 colon = test system: HCT-15 colon
RXF 393 renal = test system: RXF 393 renal
SK-MEL-5 melanoma = test system: SK-MEL-5 melanoma
SN12C renal = test system: SN12C renal
KM12 colon = test system: KM12 colon
T-47D breast = test system: T-47D breast
PC-3 prostate = test system: PC-3 prostate

CN(C)S(=O)(=O)c1ccc(-c2nc(C(Cl)Cl)nc3cc(-c4ccc(F)cc4)nn23)cc1
GI50 (SW-620 colon): 0.891 µM | TGI (SW-620 colon): 3.31 µM | GI50 (MDA-MB-231 breast): 1.75 µM | TGI (MDA-MB-231 breast): 6.28 µM | GI50 (NCI-H460 lung): 1.68 µM | TGI (NCI-H460 lung): 4.32 µM | GI50 (NCI/ADR-RES ovarian): 1.01 µM | TGI (NCI/ADR-RES ovarian): 4.66 µM | GI50 (UACC-62 melanoma): 1.3 µM | TGI (UACC-62 melanoma): 2.94 µM | GI50 (NCI-H23 lung): 1.45 µM | TGI (NCI-H23 lung): 3.4 µM | GI50 (ACHN renal): 0.925 µM | TGI (ACHN renal): 3.61 µM | GI50 (UO-31 renal): 2.14 µM | TGI (UO-31 renal): 7.26 µM | GI50 (NCI-H226 lung): 2.77 µM | TGI (NCI-H226 lung): 25.6 µM | GI50 (SF-268 CNS): 2.58 µM | TGI (SF-268 CNS): 11.1 µM | GI50 (SR leukemia): 0.32 µM | TGI (SR leukemia): > 100 µM | GI50 (HCT-116 colon): 0.986 µM | TGI (HCT-116 colon): 3.22 µM | GI50 (HT29 colon): 0.494 µM | TGI (HT29 colon): 2.15 µM | GI50 (HOP-92 NSCLC): 1.79 µM | TGI (HOP-92 NSCLC): 5.75 µM | GI50 (COLO 205 colon): 1.62 µM | TGI (COLO 205 colon): 4.23 µM | GI50 (DU-145 prostate): 1.59 µM | TGI (DU-145 prostate): 6.27 µM | GI50 (SK-OV-3 ovarian): 2.15 µM | TGI (SK-OV-3 ovarian): 7.79 µM | GI50 (OVCAR-5 ovarian): 2.23 µM | TGI (OVCAR-5 ovarian): 7.89 µM | GI50 (HL-60(TB) leukemia): 1.3 µM | TGI (HL-60(TB) leukemia): > 100 µM | GI50 (EKVX NSCLC): 1.94 µM | TGI (EKVX NSCLC): 5 µM | GI50 (HS 578T breast): 2.63 µM | TGI (HS 578T breast): 7.33 µM | GI50 (OVCAR-8 ovarian): 1.74 µM | TGI (OVCAR-8 ovarian): 7.58 µM | GI50 (CAKI-1 renal): 1.53 µM | TGI (CAKI-1 renal): 4.71 µM | GI50 (SNB-19 CNS): 2.28 µM | TGI (SNB-19 CNS): 10.9 µM | GI50 (CCRF-CEM leukemia): 1.87 µM | TGI (CCRF-CEM leukemia): > 100 µM | GI50 (U251 CNS): 1.05 µM | TGI (U251 CNS): 2.98 µM | GI50 (OVCAR-4 ovarian): 2.4 µM | TGI (OVCAR-4 ovarian): 8.14 µM | GI50 (HOP-62 NSCLC): 2.08 µM | TGI (HOP-62 NSCLC): 8.37 µM | GI50 (SF-295 CNS): 1.77 µM | TGI (SF-295 CNS): 6.66 µM | GI50 (SK-MEL-2 melanoma): 2.89 µM | TGI (SK-MEL-2 melanoma): 9.35 µM | GI50 (MDA-MB-435): 1.32 µM | TGI (MDA-MB-435): 3.12 µM | GI50 (SK-MEL-28 melanoma): 2.01 µM | TGI (SK-MEL-28 melanoma): 5.4 µM | GI50 (SF-539 CNS): 2.15 µM | TGI (SF-539 CNS): 7.55 µM | GI50 (OVCAR-3 ovarian): 1.67 µM | TGI (OVCAR-3 ovarian): 4.01 µM | GI50 (MCF7 breast): 2.46 µM | TGI (MCF7 breast): > 100 µM | GI50 (UACC-257 melanoma): 3.15 µM | TGI (UACC-257 melanoma): 16.6 µM | GI50 (LOX IMVI melanoma): 1.15 µM | TGI (LOX IMVI melanoma): 6.36 µM | GI50 (K-562 leukemia): 0.929 µM | TGI (K-562 leukemia): > 100 µM | GI50 (A549 NSCLC): 1.88 µM | TGI (A549 NSCLC): 5.7 µM | GI50 (MALME-3M melanoma): 1.86 µM | TGI (MALME-3M melanoma): 4.05 µM | GI50 (TK-10 renal): 3.11 µM | TGI (TK-10 renal): 13.1 µM | GI50 (IGROV1 ovarian): 1.44 µM | TGI (IGROV1 ovarian): 4.65 µM | GI50 (BT-549 breast): 2.29 µM | TGI (BT-549 breast): 9.99 µM | GI50 (SNB-75 CNS): 5.37 µM | TGI (SNB-75 CNS): 56.4 µM | GI50 (HCC-2998 colon): 1.43 µM | TGI (HCC-2998 colon): 2.92 µM | GI50 (A498 renal): 1.76 µM | TGI (A498 renal): 8.32 µM | GI50 (786-0 renal): 9.42 µM | TGI (786-0 renal): > 100 µM | GI50 (MOLT-4 leukemia): 0.888 µM | TGI (MOLT-4 leukemia): > 100 µM | GI50 (HCT-15 colon): 1.13 µM | TGI (HCT-15 colon): 5.08 µM | GI50 (RXF 393 renal): 1.4 µM | TGI (RXF 393 renal): 3.87 µM | GI50 (SK-MEL-5 melanoma): 1.97 µM | TGI (SK-MEL-5 melanoma): 4.22 µM | GI50 (SN12C renal): 2.18 µM | TGI (SN12C renal): 27.7 µM | GI50 (KM12 colon): 1.56 µM | TGI (KM12 colon): 4.88 µM | GI50 (T-47D breast): 3.7 µM | TGI (T-47D breast): 56.9 µM | GI50 (PC-3 prostate): 2.25 µM | TGI (PC-3 prostate): 8.56 µM

Source: PubChem BioAssay (NCI)
